Reference: ChEMBL document CHEMBL4402583, “Rational Substitution of ε-Lysine for α-Lysine Enhances the Cell and Membrane Selectivity of Pore-Forming Melittin” (J Med Chem, 2020)
Converted amounts (≈) assume the structure as drawn. The source made the active and inactive calls. The calls are words filed in the database; no cut-off is given here.

Tests used:
Staphylococcus aureus [1] = test: In vivo antibacterial activity against Staphylococcus aureus ATCC 29213 infected in C57BL/6 mouse assessed as reduction in bacterial burden by measuring log10 CFU/cornea at 0.3% administered topically as two times on day 1, four times on day 2 and two times on day 3 measured at 48 hrs post-final dose by 10 fold serial dilution method (reference value: 6.5 +/- 0.7 log10CFU); assay type: functional
Acinetobacter baumannii [2] = test: Resistance index, ratio of MIC for Acinetobacter baumannii ATCC 19606 measured after 4 serial passages by broth microdilution method to MIC for Acinetobacter baumannii ATCC 19606 incubated for 24 hrs by broth microdilution method; assay type: functional, organism-based; conditions: ATCC 19606 = CIP 70.34 = JCM 6841
Staphylococcus aureus [3] = test: Antibacterial activity against Staphylococcus aureus assessed as reduction in bacterial growth incubated for 24 hrs by broth microdilution method; assay type: functional
NHDF [4] = test: Cytotoxicity against HDF cells assessed as reduction in metabolic activity at 32 ug/ml incubated for 24 hrs by MTS assay; assay type: ADME, cell-based; conditions: human
Lipid bilayer [5] = test: Binding affinity to zwitterionic DOPC/cholesterol large unilamellar vesicles assessed as transformation of peptide secondary structure to alpha-helical conformation by CD spectropolarimetry
Lipid bilayer [6] = test: Induction of pore formation in negatively charged DOPE/DOPG large unilamellar vesicles assessed as ratio of peptide to lipid molar ratio that induces 50% calcein leakage measured for 60 mins by calcein dequenching based fluorescence based assay
[7] = Cytotoxicity against HDF cells assessed as minimum cytotoxic concentration incubated for 24 hrs by MTS assay; assay type: cell-based; conditions: human, HDF cells (NHDF, human dermal fibroblasts)
Lipid bilayer [8] = test: Induction of pore formation in negatively charged DOPE/DOPG large unilamellar vesicles assessed as calcein release at 0.39 to 50 uM measured for 60 mins by fluorescence based assay
Pseudomonas aeruginosa = test: Antibacterial activity against Pseudomonas aeruginosa assessed as reduction in bacterial growth incubated for 24 hrs by broth microdilution method; assay type: functional
NHDF [9] = test: Cytotoxicity against HDF cells at 31.25 ug/ml incubated for 24 hrs by Alexa Fluor […] phalloidin-FITC/Hoescht dye staining based fluorescence microscopic analysis; assay type: cell-based; conditions: human
Lipid bilayer [10] = test: Induction of pore formation in zwitterionic DOPC/cholesterol large unilamellar vesicles assessed as calcein release at 0.39 to 50 uM measured for 60 mins by fluorescence based assay
[11] = Cytotoxicity against HDF cells assessed as minimum cytotoxic concentration incubated for 24 hrs by Alexa Fluor […] phalloidin-FITC/Hoescht dye staining based fluorescence microscopic analysis; assay type: cell-based; conditions: human, HDF cells (NHDF, human dermal fibroblasts)
Candida albicans = test: Antifungal activity against Candida albicans assessed as reduction in fungal growth incubated for 24 hrs by broth microdilution method; assay type: functional
[12] = Stability of the compound in rabbit tear fluids assessed as parent compound remaining measured after 4 hrs by UPLC-MS analysis; assay type: ADME, Oryctolagus cuniculus; conditions: tear fluid, read-out: Stability
Staphylococcus aureus [13] = test: Antibacterial activity against methicillin-resistance Staphylococcus aureus assessed as reduction in bacterial growth incubated for 24 hrs by broth microdilution method; assay type: functional
NHDF [14] = test: Cytotoxicity against HDF cells assessed as reduction in metabolic activity at 16 ug/ml incubated for 24 hrs by MTS assay; assay type: ADME, cell-based; conditions: human
[15] = Stability of the compound in rabbit tear fluid measured after 2 hrs by UPLC-MS analysis; assay type: ADME, Oryctolagus cuniculus
Enterococcus faecalis [16] = test: Induction of pore formation in intact vancomycin-resistant Enterococcus faecalis ATCC 29212 cell membrane assessed as SG uptake at 2 times MIC by SG dye based fluorescence based assay; assay type: organism-based
Enterococcus faecalis [17] = test: Antibacterial activity against vancomycin-resistant Enterococcus faecalis ATCC 29212 assessed as log10 reduction in bacterial viability at 2 to 4 times MIC incubated for 30 mins in MHB medium followed by reincubation on MH agar plate for 24 to 48 hrs by time kill kinetics analysis; assay type: functional
Enterococcus faecalis [18] = test: Antibacterial activity against vancomycin-resistant Enterococcus faecalis 1010 assessed as log10 reduction in bacterial viability at 2 to 4 times MIC incubated for 30 mins in MHB medium followed by reincubation on MH agar plate for 24 to 48 hrs by time kill kinetics analysis; assay type: functional
Enterococcus faecalis [19] = test: Antibacterial activity against vancomycin-resistant Enterococcus faecalis 1002 assessed as log10 reduction in bacterial viability at 2 to 4 times MIC incubated for 30 mins in MHB medium followed by reincubation on MH agar plate for 24 to 48 hrs by time kill kinetics analysis; assay type: functional
Acinetobacter baumannii [20] = test: Antibacterial activity against Acinetobacter baumannii 1001 assessed as reduction in bacterial viability at 2 or 4 times MIC incubated up to 24 hrs in MHB medium followed by reincubation on MH agar plate for 24 to 48 hrs by time kill kinetics assay; assay type: functional, organism-based
Klebsiella pneumoniae = test: Antibacterial activity against Klebsiella pneumoniae 1008 assessed as reduction in bacterial viability at 2 or 4 times MIC incubated up to 24 hrs in MHB medium followed by reincubation on MH agar plate for 24 to 48 hrs by time kill kinetics assay; assay type: functional, organism-based
Enterobacteriaceae = test: Antibacterial activity against Carbapenem-Resistant Enterobacteriaceae assessed as reduction in bacterial growth incubated for 24 hrs by broth microdilution method; assay type: functional
Staphylococcus aureus [21] = test: Antibacterial activity against methicillin-sensitive Staphylococcus aureus assessed as reduction in bacterial growth incubated for 24 hrs by broth microdilution method; assay type: functional
Acinetobacter baumannii [22] = test: Antibacterial activity against multidrug-resistant Acinetobacter baumannii assessed as reduction in bacterial growth incubated for 24 hrs by broth microdilution method; assay type: functional
Escherichia coli [23] = test: Antibacterial activity against Escherichia coli 1004 assessed as reduction in bacterial viability at 2 or 4 times MIC incubated up to 24 hrs in MHB medium followed by reincubation on MH agar plate for 24 to 48 hrs by time kill kinetics assay; assay type: functional, organism-based
Escherichia coli [24] = test: Induction of pore formation in intact Escherichia coli 1004 cell membrane assessed as SG uptake at 2 times MIC by SG dye based fluorescence based assay; assay type: organism-based
Enterococcus faecalis [25] = test: Induction of pore formation in intact vancomycin-resistant Enterococcus faecalis 1002 cell membrane assessed as SG uptake at 2 times MIC by SG dye based fluorescence based assay; assay type: organism-based
Acinetobacter baumannii [26] = test: Induction of pore formation in intact Acinetobacter baumannii 1001 cell membrane assessed as SG uptake at 2 times MIC by SG dye based fluorescence based assay; assay type: organism-based
Enterococcus = test: Antibacterial activity against vancomycin-resistant Enterococcus assessed as reduction in bacterial growth incubated for 24 hrs by broth microdilution method; assay type: functional
[27] = Cytotoxicity against HDF cells assessed as cell viability at 500 ug/ml incubated for 24 hrs by MTS assay relative to control; assay type: cell-based; conditions: human, HDF cells (NHDF, human dermal fibroblasts); read-out: Activity
NHDF [28] = test: Cytotoxicity against HDF cells assessed as truncation and reduction in cytoskeleton at 500 ug/ml incubated for 24 hrs by Alexa Fluor […] phalloidin-FITC/Hoescht dye staining based fluorescence microscopic analysis; assay type: cell-based; conditions: human

Compound	MIC (Staphylococcus aureus [3]) [µg/mL]	Activity (NHDF [4])	Activity (Lipid bilayer [5])	Ratio (Lipid bilayer [6])	MCC at 24 h [7] [µg/mL]	Activity (Lipid bilayer [8])	MIC (Pseudomonas aeruginosa) [µg/mL]	Activity (NHDF [9])	Activity (Lipid bilayer [10])	MCC at 24 h [11] [µg/mL]	MIC (Candida albicans) [µg/mL]	MIC50 (Staphylococcus aureus [13]) [µg/mL]	MIC (Enterobacteriaceae) [µg/mL]	MIC50 (Enterobacteriaceae) [µg/mL]	MIC50 (Staphylococcus aureus [21]) [µg/mL]	MIC (Acinetobacter baumannii [22]) [µg/mL]	MIC50 (Acinetobacter baumannii [22]) [µg/mL]	MIC50 (Pseudomonas aeruginosa) [µg/mL]	MIC50 (Candida albicans) [µg/mL]	MIC (Enterococcus) [µg/mL]	other results
COc1c(N2C[C@@H]3CCCN[C@@H]3C2)c(F)cc2c(=O)c(C(=O)O)cn(C3CC3)c12 [MOXIFLOXACIN]																					Activity (Staphylococcus aureus [1]): 3.7 log10CFU
GENTAMICIN																					Ratio (Acinetobacter baumannii [2]): 16
CC[C@H](C)[C@H](NC(=O)CN)C(=O)NCC(=O)N[C@@H](C)C(=O)N[C@H](C(=O)N[C@@H](CC(C)C)C(=O)N[C@@H](CCCCN)C(=O)N[C@H](C(=O)N[C@@H](CC(C)C)C(=O)N[C@H](C(=O)N[C@H](C(=O)NCC(=O)N[C@@H](CC(C)C)C(=O)N1CCC[C@H]1C(=O)N[C@@H](C)C(=O)N[C@@H](CC(C)C)C(=O)N[C@H](C(=O)N[C@@H](CO)C(=O)N[C@@H](Cc1c[nH]c2ccccc12)C(=O)N[C@H](C(=O)NCCC[C@@H](CN)C(=O)N[C@@H](CCCNC(=N)N)C(=O)N[C@@H](CCCCN)C(=O)N[C@@H](CCCNC(=N)N)C(=O)N[C@@H](CCC(N)=O)C(=O)N[C@@H](CCC(N)=O)C(N)=O)[C@@H](C)CC)[C@@H](C)CC)[C@@H](C)O)[C@@H](C)O)C(C)C)C(C)C	4 to 8 (≈ 1.41 to 2.81 µM)	Toxic	inactive	0.24	> 16	Active	4 to 16 (≈ 1.41 to 5.62 µM)	Toxic	Active	> 16	4 to 8 (≈ 1.41 to 2.81 µM)										
CC[C@H](C)[C@H](NC(=O)CN)C(=O)NCC(=O)N[C@@H](C)C(=O)N[C@H](C(=O)N[C@@H](CC(C)C)C(=O)N[C@@H](CCCCN)C(=O)N[C@H](C(=O)N[C@@H](CC(C)C)C(=O)N[C@H](C(=O)N[C@H](C(=O)NCC(=O)N[C@@H](CC(C)C)C(=O)N1CCC[C@H]1C(=O)N[C@@H](C)C(=O)N[C@@H](CC(C)C)C(=O)N[C@H](C(=O)N[C@@H](CO)C(=O)N[C@@H](Cc1c[nH]c2ccccc12)C(=O)N[C@H](C(=O)N[C@@H](CCCCN)C(=O)N[C@@H](CCCNC(=N)N)C(=O)N[C@@H](CCCCN)C(=O)N[C@@H](CCCNC(=N)N)C(=O)N[C@@H](CCC(N)=O)C(=O)N[C@@H](CCC(N)=O)C(N)=O)[C@@H](C)CC)[C@@H](C)CC)[C@@H](C)O)[C@@H](C)O)C(C)C)C(C)C [MELITTIN]			Active	0.04	> 8	Active			Active	> 8	4 to 8 (≈ 1.41 to 2.81 µM)	4 (≈ 1.41 µM)	8 to 32 (≈ 2.81 to 11.2 µM)	8 (≈ 2.81 µM)	4 (≈ 1.41 µM)	2 to 4 (≈ 0.703 to 1.41 µM)	4 (≈ 1.41 µM)	16 (≈ 5.62 µM)	4 (≈ 1.41 µM)	0.5 to 8 (≈ 0.176 to 2.81 µM)	remaining at 4 h [12]: 85.3%; Activity (NHDF [14]): Toxic; Stability [15]: Stable; Activity (Enterococcus faecalis [16]): Active; log(activity) (Enterococcus faecalis [17]): >5; log(activity) (Enterococcus faecalis [18]): >5; log(activity) (Enterococcus faecalis [19]): >5; Activity (Acinetobacter baumannii [20]): Active; Activity (Klebsiella pneumoniae): Active; Activity (Escherichia coli [23]): Active; Activity (Escherichia coli [24]): Active; Activity (Enterococcus faecalis [25]): Active; Activity (Acinetobacter baumannii [26]): Active; MIC50 (Enterococcus): 4 µg/mL (≈ 1.41 µM)
CC[C@H](C)[C@H](NC(=O)CN)C(=O)NCC(=O)N[C@@H](C)C(=O)N[C@H](C(=O)N[C@@H](CC(C)C)C(=O)N[C@@H](CCCCN)C(=O)N[C@H](C(=O)N[C@@H](CC(C)C)C(=O)N[C@H](C(=O)N[C@H](C(=O)NCC(=O)N[C@@H](CC(C)C)C(=O)N1CCC[C@H]1C(=O)N[C@@H](C)C(=O)N[C@@H](CC(C)C)C(=O)N[C@H](C(=O)N[C@@H](CO)C(=O)N[C@@H](Cc1c[nH]c2ccccc12)C(=O)N[C@H](C(=O)N[C@@H](CCCCN)C(=O)N[C@@H](CCCNC(=N)N)C(=O)NCCC[C@@H](CN)C(=O)N[C@@H](CCCNC(=N)N)C(=O)N[C@@H](CCC(N)=O)C(=O)N[C@@H](CCC(N)=O)C(N)=O)[C@@H](C)CC)[C@@H](C)CC)[C@@H](C)O)[C@@H](C)O)C(C)C)C(C)C	4 to 8 (≈ 1.41 to 2.81 µM)	Toxic	inactive	0.15	> 16	Active	4 to 16 (≈ 1.41 to 5.62 µM)	Toxic	Active	> 16	4 to 8 (≈ 1.41 to 2.81 µM)										
CC[C@H](C)[C@H](NC(=O)CN)C(=O)NCC(=O)N[C@@H](C)C(=O)N[C@H](C(=O)N[C@@H](CC(C)C)C(=O)NCCC[C@@H](CN)C(=O)N[C@H](C(=O)N[C@@H](CC(C)C)C(=O)N[C@H](C(=O)N[C@H](C(=O)NCC(=O)N[C@@H](CC(C)C)C(=O)N1CCC[C@H]1C(=O)N[C@@H](C)C(=O)N[C@@H](CC(C)C)C(=O)N[C@H](C(=O)N[C@@H](CO)C(=O)N[C@@H](Cc1c[nH]c2ccccc12)C(=O)N[C@H](C(=O)NCCC[C@@H](CN)C(=O)N[C@@H](CCCNC(=N)N)C(=O)NCCC[C@@H](CN)C(=O)N[C@@H](CCCNC(=N)N)C(=O)N[C@@H](CCC(N)=O)C(=O)N[C@@H](CCC(N)=O)C(N)=O)[C@@H](C)CC)[C@@H](C)CC)[C@@H](C)O)[C@@H](C)O)C(C)C)C(C)C							16 to 64 (≈ 5.62 to 22.5 µM)				4 to 8 (≈ 1.41 to 2.81 µM)	64 (≈ 22.5 µM)	4 to 64 (≈ 1.41 to 22.5 µM)	8 (≈ 2.81 µM)	64 (≈ 22.5 µM)	4 to 8 (≈ 1.41 to 2.81 µM)	8 (≈ 2.81 µM)	32 (≈ 11.2 µM)	4 (≈ 1.41 µM)	4 to 16 (≈ 1.41 to 5.62 µM)	viability at 24 h, 500 ug/ml [27]: 102%; Activity (NHDF [28]): Toxic; MIC (Staphylococcus aureus [21]): 16 to 128 µg/mL (≈ 5.62 to 45 µM); MIC50 (Enterococcus): 8 µg/mL (≈ 2.81 µM)
